Data published in patent US10329309B2, “3-(3H-imidazo[4,5-B]pyridin-2-yl)-1H-pyrazolo[4,3-B]pyridines and therapeutic uses thereof” (Samumed, LLC, priority 2015, dated 2019).

Assays:
Assay type in all cases: cell-based
IL-6 (THP-1 cells) = assay: Inhibition of IL-6 in LPS-stimulated THP-1 monocytes (HTRF); settings: Homo sapiens; for EC50: LPS 500 ng/mL, IL-6 by HTRF; for inhibition at 10 µM: LPS stimulated, IL-6, at 10 μM, read-out: percent inhibition at 10 μM (given for EC50 of >10 μM)
In short: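 THP-1 cells, serum-starved in 1% FBS for 24 h, were pre-incubated 2 h with compound (10-point, 1:3 from 10 μM, 0.1% DMSO), then stimulated with 500 ng/mL LPS for 22 h at 37 °C. IL-6 was quantified by HTRF 665/620 ratio. EC50 was fitted from DMSO-normalized data; above 10 μM, % inhibition at 10 μM is given.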

[1] = test system: primary human fibroblasts derived from IPF patients (LL29 cells), α-smooth muscle actin (αSMA); assay: Inhibition of the fibrotic process: TGF-β1-treated primary human fibroblasts from IPF patients, αSMA staining; settings: Fibroblast, 96 h, 4 days; for EC50: LL29 fibroblasts from IPF patients, TGF-β1 20 ng/mL, inhibition of fibrotic process; for inhibition at 10 µM: LL29 fibroblasts, TGF-β1 treated, read-out: percent inhibition at 10 μM (given for EC50 of >10 μM)
In short: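 LL29 IPF-patient lung fibroblasts in 1% FBS F12 were given compounds (11-point, 10 μM to […], 0.1% DMSO) plus TGF-β1 20 ng/mL for 4 days at 37 °C. αSMA-positive fraction of live (SYTOX-negative) cells was imaged and normalized to TGF-β1/DMSO wells. EC50 by non-linear regression, or % inhibition at 10 μM if >10 μM.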

SW480 colon cancer cells = assay: Cell viability assay (CellTiter-Blue), four days; settings: Homo sapiens, 96 h; for EC50: CellTiter-Blue cell viability; for inhibition at 10 µM: read-out: percent inhibition at 10 μM (given for EC50 of >10 μM)
In short: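 SW480 colon cancer cells (~2×10^3/well) exposed to 8-point 1:3 dilutions from 10 μM to 0.0045 μM for four days at 37 °C/5% CO2. Viability read by resazurin (CellTiter-Blue) fluorescence after ~3 h, Ex 560/Em 590 nm. EC50 from non-linear regression; percent inhibition at 10 μM given when EC50 >10 μM.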

| SMILES | EC50 (IL-6 (THP-1 cells)) | EC50 (SW480 colon cancer cells) | inhibition at 10 µM (IL-6 (THP-1 cells)) | EC50 [1] | inhibition at 10 µM (SW480 colon cancer cells) | inhibition at 10 µM [1] |
| --- | --- | --- | --- | --- | --- | --- |
| CC(C)(C)CC(=O)Nc1cncc(-c2ccc3[nH]nc(-c4nc5cccnc5[nH]4)c3n2)c1 [Compound 268, N-(5-(3-(3H-Imidazo[4,5-b]pyridin-2-yl)-1H-pyrazolo[4,3-b]pyridin-5-yl)pyridin-3-yl)-3,3-dimethylbutanamide] | > 10 µM | > 10 µM | 32.5% | 7.2 µM | 0% |  |
| CCC(=O)Nc1cncc(-c2ccc3[nH]nc(-c4nc5c(-c6ccsc6)ccnc5[nH]4)c3n2)c1 [Compound 281, N-(5-(3-(7-(thiophen-3-yl)-3H-imidazo[4,5-b]pyridin-2-yl)-1H-pyrazolo[4,3-b]pyridin-5-yl)pyridin-3-yl)propionamide] | > 10 µM | > 10 µM | 25% | > 10 µM | 24.2% | 21.4% |
| Cc1ccc(-c2ccnc3[nH]c(-c4n[nH]c5ccc(-c6cncc(NC(=O)C7CCCC7)c6)nc45)nc23)s1 [Compound 414, N-(5-(3-(7-(5-Methylthiophen-2-yl)-3H-imidazo[4,5-b]pyridin-2-yl)-1H-pyrazolo[4,3-b]pyridin-5-yl)pyridin-3-yl)cyclopentanecarboxamide] | 1.85 µM | > 10 µM |  | 0.066 µM | 14.7% |  |
| CCCCC(=O)Nc1cncc(-c2ccc3[nH]nc(-c4nc5c(-c6cc(F)cc(NCCN(C)C)c6)ccnc5[nH]4)c3n2)c1 [Compound 467, N-(5-(3-(7-(3-((2-(dimethylamino)ethyl)amino)-5-fluorophenyl)-3H-imidazo[4,5-b]pyridin-2-yl)-1H-pyrazolo[4,3-b]pyridin-5-yl)pyridin-3-yl)pentanamide] | > 10 µM | > 10 µM | 23% | 2.26 µM | 2.7% |  |
| CCCC(=O)Nc1cncc(-c2ccc3[nH]nc(-c4nc5c(-c6cc(F)cc(CNS(C)(=O)=O)c6)ccnc5[nH]4)c3n2)c1 [Compound 493, N-(5-(3-(7-(3-fluoro-5-(methylsulfonamidomethyl)phenyl)-3H-imidazo[4,5-b]pyridin-2-yl)-1H-pyrazolo[4,3-b]pyridin-5-yl)pyridin-3-yl)butyramide] | > 10 µM | > 10 µM | 23.4% | > 10 µM | 3.9% | 0% |
| Fc1cccc(-c2ccnc3[nH]c(-c4n[nH]c5ccc(-c6cn[nH]c6)nc45)nc23)c1 [Compound 507, 3-(7-(3-fluorophenyl)-3H-imidazo[4,5-b]pyridin-2-yl)-5-(1H-pyrazol-4-yl)-1H-pyrazolo[4,3-b]pyridine] | > 10 µM | > 10 µM | 35.9% | > 10 µM | 0% | 16.2% |
| Cn1cc(-c2ccc3[nH]nc(-c4nc5c(-c6cccc(F)c6)ccnc5[nH]4)c3n2)cn1 [Compound 508, 3-(7-(3-fluorophenyl)-3H-imidazo[4,5-b]pyridin-2-yl)-5-(1-methyl-1H-pyrazol-4-yl)-1H-pyrazolo[4,3-b]pyridine] | > 10 µM | > 10 µM | 15.5% | > 10 µM | 0% | 8.1% |
| Fc1cccc(-c2ccnc3[nH]c(-c4n[nH]c5ccc(-c6cncc(OC7CCNCC7)c6)nc45)nc23)c1 [Compound 512, 3-(7-(3-fluorophenyl)-3H-imidazo[4,5-b]pyridin-2-yl)-5-(5-(piperidin-4-yloxy)pyridin-3-yl)-1H-pyrazolo[4,3-b]pyridine] | > 10 µM | > 10 µM | 35.7% | 1.66 µM | 15.7% |  |

Second part, led by results:

| EC50 (IL-6 (THP-1 cells)) | EC50 (SW480 colon cancer cells) | SMILES | inhibition at 10 µM (IL-6 (THP-1 cells)) | EC50 [1] | inhibition at 10 µM (SW480 colon cancer cells) | inhibition at 10 µM [1] |
| --- | --- | --- | --- | --- | --- | --- |
| > 10 µM | > 10 µM | O=C(Nc1cncc(-c2ccc3[nH]nc(-c4nc5cccnc5[nH]4)c3n2)c1)C1CCCCC1 [Compound 275, N-(5-(3-(3H-Imidazo[4,5-b]pyridin-2-yl)-1H-pyrazolo[4,3-b]pyridin-5-yl)pyridin-3-yl)cyclohexanecarboxamide] | 33.1% | 3.96 µM | 2.6% |  |
| 0.004 µM | > 10 µM | CN(C)c1cncc(-c2ccc3[nH]nc(-c4nc5c(-c6cccs6)ccnc5[nH]4)c3n2)c1 [Compound 343, N,N-dimethyl-5-(3-(7-(thiophen-2-yl)-3H-imidazo[4,5-b]pyridin-2-yl)-1H-pyrazolo [4,3-b]pyridin-5-yl)pyridin-3-amine] |  | 1.18 µM | 17.5% |  |
| > 10 µM | > 10 µM | CCNCc1cncc(-c2ccc3[nH]nc(-c4nc5c(-c6cc(F)cc(NCCN(C)C)c6)ccnc5[nH]4)c3n2)c1 [Compound 454, N^1-(3-(2-(5-(5-((ethylamino)methyl)pyridin-3-yl)-1H-pyrazolo[4,3-b]pyridin-3-yl)-3H-imidazo[4,5-b]pyridin-7-yl)-5-fluorophenyl)-N^2,N^2-dimethylethane-1,2-diamine] | 36.4% | 3.51 µM | 42.2% |  |
| > 10 µM | 9.02 µM | CN(C)CCNc1cc(F)cc(-c2ccnc3[nH]c(-c4n[nH]c5ccc(-c6ccccn6)nc45)nc23)c1 [Compound 476, N^1-(3-Fluoro-5-(2-(5-(pyridin-2-yl)-1H-pyrazolo[4,3-b]pyridin-3-yl)-3H-imidazo[4,5-b]pyridin-7-yl)phenyl)-N^2,N^2-dimethylethane-1,2-diamine] | 33% | 4.41 µM |  |  |
| > 10 µM | > 10 µM | CS(=O)(=O)NCc1cc(F)cc(-c2ccnc3[nH]c(-c4n[nH]c5ccc(-c6cncc(NC(=O)c7ccccc7)c6)nc45)nc23)c1 [Compound 487, N-(5-(3-(7-(3-Fluoro-5-(methylsulfonamidomethyl)phenyl)-3H-imidazo[4,5-b]pyridin-2-yl)-1H-pyrazolo[4,3-b]pyridin-5-yl)pyridin-3-yl)benzamide] | 0% | > 10 µM | 0.6% | 0% |
| > 10 µM | > 10 µM | CS(=O)(=O)NCc1cc(F)cc(-c2ccnc3[nH]c(-c4n[nH]c5ccc(-c6cncnc6)nc45)nc23)c1 [Compound 503, N-(3-Fluoro-5-(2-(5-(pyrimidin-5-yl)-1H-pyrazolo[4,3-b]pyridin-3-yl)-3H-imidazo[4,5-b]pyridin-7-yl)benzyl)methanesulfonamide] | 29.6% | > 10 µM | 0.9% | 0% |
| 3.48 µM | 8.3 µM | Fc1cccc(-c2ccnc3[nH]c(-c4n[nH]c5ccc(C6CCNCC6)nc45)nc23)c1 [Compound 505, 3-(7-(3-fluorophenyl)-3H-imidazo[4,5-b]pyridin-2-yl)-5-(piperidin-4-yl)-1H-pyrazolo[4,3-b]pyridine] |  | 4.93 µM |  |  |
| > 10 µM | > 10 µM | c1cncc(-c2ccnc3[nH]c(-c4n[nH]c5ccc(-c6cncc(OC7CCCCC7)c6)nc45)nc23)c1 [Compound 559, 5-(5-(Cyclohexyloxy)pyridin-3-yl)-3-(7-(pyridin-3-yl)-3H-imidazo[4,5-b]pyridin-2-yl)-1H-pyrazolo[4,3-b]pyridine] | 31.6% | 5.18 µM | 4% |  |
| 9.48 µM | > 10 µM | Oc1cncc(-c2ccc3[nH]nc(-c4nc5c(-c6cccnc6)ccnc5[nH]4)c3n2)c1 [Compound 565, 5-(3-(7-(Pyridin-3-yl)-3H-imidazo[4,5-b]pyridin-2-yl)-1H-pyrazolo[4,3-b]pyridin-5-yl)pyridin-3-ol] |  | > 10 µM | 5.9% | 0% |
| > 10 µM | > 10 µM | c1cc(-c2ccnc3[nH]c(-c4n[nH]c5ccc(-c6cncc(OC7CCNCC7)c6)nc45)nc23)ccn1 [Compound 576, 5-(5-(Piperidin-4-yloxy)pyridin-3-yl)-3-(7-(pyridin-4-yl)-3H-imidazo[4,5-b]pyridin-2-yl)-1H-pyrazolo[4,3-b]pyridine] | 38.1% | 4.07 µM | 1.7% |  |
| > 10 µM | > 10 µM | c1ccc(COc2cncc(-c3ccc4[nH]nc(-c5nc6c(-c7ccncc7)ccnc6[nH]5)c4n3)c2)cc1 [Compound 582, 5-(5-(Benzyloxy)pyridin-3-yl)-3-(7-(pyridin-4-yl)-3H-imidazo[4,5-b]pyridin-2-yl)-1H-pyrazolo[4,3-b]pyridine] | 3.2% | 0.648 µM | 2.6% |  |
